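Cells were grown in 96-well plates and exposed to each compound for 48 hours at five concentrations; endpoints were interpolated linearly between bracketing concentrations, or set to the highest concentration if not reached. TGI is the concentration that stops growth completely.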
What was measured:
Experiment in all cases: growth of human tumour cells (NCI), 48 h
[1] = test system: ACHN renal
[2] = test system: HCT-116 colon
[3] = test system: SK-OV-3 ovarian
[4] = test system: SF-268 CNS
[5] = test system: MCF7 breast
[6] = test system: UACC-62 melanoma
[7] = test system: MDA-N
[8] = test system: MOLT-4 leukemia
[9] = test system: A549 NSCLC
[10] = test system: HOP-62 NSCLC
[11] = test system: HCC-2998 colon
[12] = test system: MDA-MB-435
[13] = test system: SF-295 CNS
[14] = test system: PC-3 prostate
[15] = test system: NCI/ADR-RES ovarian
[16] = test system: A498 renal
[17] = test system: KM12 colon
[18] = test system: BT-549 breast
[19] = test system: CCRF-CEM leukemia
[20] = test system: LOX IMVI melanoma
[21] = test system: HL-60(TB) leukemia
[22] = test system: OVCAR-5 ovarian
[23] = test system: UACC-257 melanoma
[24] = test system: SR leukemia
[25] = test system: SF-539 CNS
[26] = test system: NCI-H460 lung
[27] = test system: CAKI-1 renal
[28] = test system: SN12C renal
[29] = test system: IGROV1 ovarian
[30] = test system: TK-10 renal
[31] = test system: DU-145 prostate
[32] = test system: EKVX NSCLC
[33] = test system: K-562 leukemia
[34] = test system: COLO 205 colon
[35] = test system: HT29 colon
[36] = test system: SK-MEL-28 melanoma
[37] = test system: NCI-H23 lung
[38] = test system: SK-MEL-2 melanoma
[39] = test system: OVCAR-3 ovarian
[40] = test system: OVCAR-8 ovarian
[41] = test system: 786-0 renal
[42] = test system: RPMI-8226 leukemia
[43] = test system: HS 578T breast
[44] = test system: MDA-MB-231 breast
[45] = test system: HOP-92 NSCLC
[46] = test system: SW-620 colon
[47] = test system: UO-31 renal
[48] = test system: SNB-19 CNS
[49] = test system: U251 CNS
[50] = test system: HCT-15 colon
[51] = test system: SK-MEL-5 melanoma
[52] = test system: NCI-H522 lung
[53] = test system: OVCAR-4 ovarian
[54] = test system: T-47D breast
[55] = test system: M14 melanoma
[56] = test system: MALME-3M melanoma
[57] = test system: NCI-H226 lung
[58] = test system: SNB-75 CNS
[59] = test system: RXF 393 renal

## CCCCCCC(CCl)c1sc(-c2csc(CCNC(=O)OC(C)(C)C)n2)nc1C(=O)OC (configuration not stated)
[1]
  TGI: 81.6 µM
[2]
  TGI: 31.6 µM
[3]
  TGI: 88.2 µM
[4]
  TGI: 52.4 µM
[5]
  TGI: 29.5 µM
[6]
  TGI: 38.9 µM
[7]
  TGI: 87.9 µM
[8]
  TGI: 24.2 µM
[9]
  TGI: > 100 µM
[10]
  TGI: > 100 µM
[11]
  TGI: 62.6 µM
[12]
  TGI: 30.4 µM
[13]
  TGI: > 100 µM
[14]
  TGI: 63.8 µM
[15]
  TGI: 14.8 µM
[16]
  TGI: > 100 µM
[17]
  TGI: 80.5 µM
[18]
  TGI: 58.3 µM
[19]
  TGI: > 100 µM
[20]
  TGI: 25.9 µM
[21]
  TGI: > 100 µM
[22]
  TGI: > 100 µM
[23]
  TGI: 67.6 µM
[24]
  TGI: > 100 µM
[25]
  TGI: 44.4 µM
[26]
  TGI: 46.8 µM
[27]
  TGI: > 100 µM
[28]
  TGI: 38.9 µM
[29]
  TGI: > 100 µM
[30]
  TGI: > 100 µM
[31]
  TGI: > 100 µM
[32]
  TGI: > 100 µM
[33]
  TGI: > 100 µM
[34]
  TGI: > 100 µM
[35]
  TGI: 51.2 µM
[36]
  TGI: > 100 µM
[37]
  TGI: > 100 µM
[38]
  TGI: 29.6 µM
[39]
  TGI: 86.8 µM
[40]
  TGI: > 100 µM
[41]
  TGI: 75.9 µM
[42]
  TGI: > 100 µM
[43]
  TGI: 65.9 µM
[44]
  TGI: > 100 µM
[45]
  TGI: 69.7 µM
[46]
  TGI: > 100 µM
[47]
  TGI: 67.8 µM
[48]
  TGI: > 100 µM
[49]
  TGI: 38 µM
[50]
  TGI: 73.5 µM
[51]
  TGI: 16.1 µM
[52]
  TGI: > 100 µM
[53]
  TGI: 78 µM
[54]
  TGI: 13 µM

## N=C1N=C(N)c2cc3c(cc21)SCCSCCCSCCS3
[1]
  TGI: 28.2 µM
[2]
  TGI: 23.6 µM
[3]
  TGI: 41.1 µM
[4]
  TGI: 32.4 µM
[5]
  TGI: > 55.7 µM
[55]
  TGI: 35.7 µM
[6]
  TGI: > 54.7 µM
[7]
  TGI: 33.8 µM
[8]
  TGI: 32.5 µM
[9]
  TGI: 49.8 µM
[56]
  TGI: 44.4 µM
[10]
  TGI: 30.7 µM
[11]
  TGI: 27.8 µM
[12]
  TGI: 15.9 µM
[13]
  TGI: 31.1 µM
[14]
  TGI: 34.7 µM
[15]
  TGI: > 100 µM
[16]
  TGI: > 69.6 µM
[17]
  TGI: 26.7 µM
[18]
  TGI: 31.4 µM
[19]
  TGI: > 25.9 µM
[20]
  TGI: 17.6 µM
[57]
  TGI: > 73.2 µM
[21]
  TGI: 20.6 µM
[22]
  TGI: 40.3 µM
[23]
  TGI: 44 µM
[24]
  TGI: 37.6 µM
[25]
  TGI: > 54.6 µM
[26]
  TGI: 29.9 µM
[27]
  TGI: > 63.4 µM
[28]
  TGI: 33.2 µM
[29]
  TGI: 38.4 µM
[30]
  TGI: 28.6 µM
[31]
  TGI: 88.4 µM
[32]
  TGI: > 58.5 µM
[33]
  TGI: 31.8 µM
[34]
  TGI: 16.9 µM
[35]
  TGI: > 48.6 µM
[36]
  TGI: 31.4 µM
[37]
  TGI: 16.2 µM
[58]
  TGI: 46.9 µM
[59]
  TGI: 41.3 µM
[38]
  TGI: 37.7 µM
[39]
  TGI: 28.4 µM
[40]
  TGI: 41.3 µM
[41]
  TGI: 32.6 µM
[43]
  TGI: 44.2 µM
[44]
  TGI: 39.6 µM
[45]
  TGI: > 54.7 µM
[46]
  TGI: 30.7 µM
[47]
  TGI: > 100 µM
[48]
  TGI: 32.3 µM
[49]
  TGI: > 50.7 µM
[50]
  TGI: 32.3 µM
[51]
  TGI: 31.7 µM
[52]
  TGI: 11.1 µM
[53]
  TGI: 56.5 µM
[54]
  TGI: 69.1 µM
